# Source: article PMC10115881, “Disrupting the α-synuclein-ESCRT interaction with a peptide inhibitor mitigates neurodegeneration in preclinical models of Parkinson’s disease” (Nature Communications, 2023)
# Test system: A53T a-syn expressing HEK293 cells
# Assay: Cell viability with CHMP2B or VPS4 shRNA knockdown, A53T a-syn cells
# Assay type: cell-based, human
# Parameters: Knockdown effect on cell viability: scale not given here
# Text: Fig. 1 Proteomic screens and in vitro validation of hits. A Schematic of the experimental design including proteomic screens, identification and validation of hits, target deconvolution, and evaluation in cell and animal models (created using Servier Medical Art at https://smart.servier.com/). For the cytotoxicity screen, we employed our peptide library to identify peptides that rescue cytotoxicity induced by a-syn overexpression and proteostatic stress (due to MG132 administration). To screen our library for peptides that inhibit a-syn oligomers, we used FACS with a split YFP-a-syn system (cells co-expressing V1S and SV2). B Validation of cell viability effect of peptides in A53T and WT a-syn expressing cells under proteostatic stress as well as controls. MG132 was used at a concentration of 10 μM. Experiments were done in triplicate. Data represent means ± s.d. (unpaired two-tailed t-tests; A53T PDpep1, P = 0.0051; A53T PDpep1.1, P = 0.0002; A53T PDpep1.2, P = 0.0035; A53T PDpep1.3, P < 0.0001; WT a-syn PDpep1.3, P = 0.0008; n = 3). C WT a-syn oligomers as measured by luciferase activity. […] Experiments were done in triplicate. Data represent means ± s.d. (unpaired two-tailed t-tests; PDpep1, P = 0.0008; PDpep1.1, PDpep1.2, PDpep1.3, P < 0.0001; n = 3). D Co-immunoprecipitation experiment with Flag-CHMP2B and GFP-peptides (n = 3). […] E Fluorescence polarization (FP) binding assay of a FITC-labeled PDpep1.3 peptide against CHMP2B. Error bars represent ± s.d. of the fit (n = 5). F Knockdown of CHMP2B or VPS4 in A53T a-syn expressing cells under proteostatic stress. Cell viabilities were measured with cells stably expressing different shRNAs and transfected with Scramble or PDpep1.3 peptide. Experiments were done in triplicate. Data represent means ± s.d. (unpaired two-tailed t-tests; PDpep1.3, P = 0.0005; n = 3). **P < 0.01; ***P < 0.001; ****P < 0.0001. Source data are provided as a Source Data file.
# Cells were trypsinized from subconfluent cultures as described earlier, suspended in culture media, and then seeded into triplicate wells of a 96-well plate (100 µl/well) at a density of 1.5 × 10^4 cells per well with standard culture conditions of 5% CO2 at 37 °C. Cells were infected with lentivirus expressing peptide at a MOI of 5 for 72 h or transfected with plasmid for 72 h. Cell Titer-Glo reagent was added to each well (30 µL), according to the manufacturer’s protocol and […].
sequence,measurement,setting,value
DEEIERQLKALG [PDpep1.3],Knockdown effect on cell viability,"CHMP2B shRNA, replicate 1",1.187
same,Knockdown effect on cell viability,"CHMP2B shRNA, replicate 2",1.181
same,Knockdown effect on cell viability,"CHMP2B shRNA, replicate 3",1.121
same,Knockdown effect on cell viability,"No shRNA, replicate 1",1.473
same,Knockdown effect on cell viability,"No shRNA, replicate 2",1.4504
same,Knockdown effect on cell viability,"No shRNA, replicate 3",1.525
same,Knockdown effect on cell viability,"VPS4A shRNA, replicate 1",1.3172
same,Knockdown effect on cell viability,"VPS4A shRNA, replicate 2",1.331
same,Knockdown effect on cell viability,"VPS4A shRNA, replicate 3",1.421
same,Knockdown effect on cell viability,"VPS4A/B shRNA, replicate 1",1.464
same,Knockdown effect on cell viability,"VPS4A/B shRNA, replicate 2",1.542
same,Knockdown effect on cell viability,"VPS4A/B shRNA, replicate 3",1.564
same,Knockdown effect on cell viability,"VPS4B shRNA, replicate 1",1.302
same,Knockdown effect on cell viability,"VPS4B shRNA, replicate 2",1.395
same,Knockdown effect on cell viability,"VPS4B shRNA, replicate 3",1.343
same,Cytoprotective effect under knockdown,shRNA CHMP2B or VPS4A and/or VPS4B,"prevented by CHMP2B knockdown, but not by knockdown of VPS4A and/or VPS4B"
